According to patent US6515159B2, “S,S-ethylenediamine-N,N′-disuccinic acid iron alkali salt and a process for production thereof” (Mitsubishi Rayon Co., Ltd., priority 1997, dated 2003):

What was measured:
[1] = storage stability of 40% aqueous solution (dissolution state after storage); format: physicochemical; settings: 40% aqueous solution stored at 50° C. for 1 week, then diluted to 1%
Method: Each of the powders obtained in Examples 1, 10 and 13 and Comparative Examples 1 and 3 was dissolved to obtain a 40% aqueous solution. The solution was stored at 50° C. for 1 week and then diluted to 1% and the dissolution state of the resulting diluted solution was observed.

SMILES | dissolution state of the resulting diluted solution [1] | pH of aqueous solution
O=C([O-])C[C@H](NCCN[C@@H](CC(=O)[O-])C(=O)[O-])C(=O)[O-].[Fe+3].[Na+] [Example 1, S,S-ethylenediamine-N,N′-disuccinic acid iron sodium salt] | no insoluble material was found | –
O=C(O)C[C@H](NCCN[C@@H](CC(=O)O)C(=O)O)C(=O)O [S,S-ethylenediamine-N,N′-disuccinic acid] | – | ~2
